Bounds are passed on as bounds.

The target in test [1] is Acetylcholinesterase (Homo sapiens, UniProt P22303).
Description: Inhibition of AChE (unknown origin) preincubated for 30 mins followed by substrate addition acetylthiocholineiodide measured after 40 mins by Ellman's method
Test [2] deals with Cholinesterase (Homo sapiens, UniProt P06276).
Description: Inhibition of BuChE (unknown origin) preincubated for 30 mins followed by substrate addition acetylthiocholineiodide measured after 40 mins by Ellman's method
The test system of test [3] is N2a. Description: Cytotoxicity against mouse N2a cells incubated for 48 hrs by MTT assay. Type of test: cell-based. Background: Tetrazolium dyes change colour on reduction, which living cells bring about.
A short description of test [4]: Cytotoxicity against goat fetal fibroblast cells incubated for 48 hrs by MTT assay. Type of test: cell-based, Fetal fibroblast cell. Conditions: Capra hircus.
Test [5] can be described thus: Cytotoxicity against porcine fetal kidney cells incubated for 48 hrs by MTT assay. The note with it: Sus scrofa, Fetal kidney cell. Type of test: cell-based.

Chain of Cholinesterase (P06276 whole entry): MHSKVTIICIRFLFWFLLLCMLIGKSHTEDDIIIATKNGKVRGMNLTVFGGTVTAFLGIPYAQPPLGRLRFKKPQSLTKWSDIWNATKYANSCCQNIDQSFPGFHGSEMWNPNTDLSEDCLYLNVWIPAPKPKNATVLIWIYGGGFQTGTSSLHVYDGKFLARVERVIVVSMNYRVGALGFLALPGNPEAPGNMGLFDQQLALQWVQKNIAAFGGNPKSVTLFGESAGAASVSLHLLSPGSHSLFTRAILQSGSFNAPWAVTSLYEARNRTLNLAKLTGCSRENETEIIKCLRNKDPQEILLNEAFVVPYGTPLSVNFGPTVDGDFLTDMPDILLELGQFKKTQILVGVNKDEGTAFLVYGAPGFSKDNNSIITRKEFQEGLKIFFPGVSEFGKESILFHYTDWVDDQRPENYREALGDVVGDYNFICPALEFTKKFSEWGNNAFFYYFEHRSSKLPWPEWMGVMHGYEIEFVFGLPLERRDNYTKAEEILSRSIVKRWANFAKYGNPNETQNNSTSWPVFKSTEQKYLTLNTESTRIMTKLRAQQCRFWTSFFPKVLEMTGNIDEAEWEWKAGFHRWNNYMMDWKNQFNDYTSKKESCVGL
Chain of Acetylcholinesterase (P22303 whole entry): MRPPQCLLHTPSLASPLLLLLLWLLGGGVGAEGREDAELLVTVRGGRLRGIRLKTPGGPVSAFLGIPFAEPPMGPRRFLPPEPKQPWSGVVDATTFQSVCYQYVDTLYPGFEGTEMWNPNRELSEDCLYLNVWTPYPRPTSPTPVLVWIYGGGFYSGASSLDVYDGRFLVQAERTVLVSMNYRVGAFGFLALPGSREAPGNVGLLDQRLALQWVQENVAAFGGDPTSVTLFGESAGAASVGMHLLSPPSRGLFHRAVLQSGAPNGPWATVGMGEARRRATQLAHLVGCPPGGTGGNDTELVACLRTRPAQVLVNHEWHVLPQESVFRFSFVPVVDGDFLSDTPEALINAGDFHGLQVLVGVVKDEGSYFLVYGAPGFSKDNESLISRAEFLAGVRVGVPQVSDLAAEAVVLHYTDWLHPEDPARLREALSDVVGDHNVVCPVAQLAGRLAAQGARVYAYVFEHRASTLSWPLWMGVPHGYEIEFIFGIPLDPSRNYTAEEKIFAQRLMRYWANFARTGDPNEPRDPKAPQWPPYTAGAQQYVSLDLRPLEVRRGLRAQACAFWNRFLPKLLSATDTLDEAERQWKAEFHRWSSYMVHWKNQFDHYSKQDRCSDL

In the case of `COc1cccc2c1C=[N+](c1ccccc1Br)CC2`, the IC50 – broadly, the concentration needed to halve the response being measured – in test [1] was 1.5 µM; in test [2] it was 27.2 µM.

Regarding `COc1cccc2c1C=[N+](c1ccccc1C#N)CC2`, the IC50 in test [1] was > 10 µM.

Consider `COc1cccc2c1C=[N+](c1ccc(F)cc1)CC2`, for which the half-inhibitory concentration (IC50) is 1.99 µM in test [1] and 113 µM in test [2].

`COc1cccc2c1C=[N+](c1cccc(F)c1)CC2`: the IC50 in test [1] is > 10 µM.

Consider `COc1cccc2c1C=[N+](c1cccc(I)c1)CC2`, for which, in test [1], the IC50 is > 10 µM.

In the case of `COc1cccc2c1C=[N+](c1ccccc1C)CC2`, the values for the IC50 in test [1] and in test [2] were 3.07 µM and 133 µM, respectively.

`COc1cccc2c1C=[N+](c1cccc(Cl)c1)CC2`: in test [1], the IC50 was > 10 µM.

`COc1cccc2c1C=[N+](c1ccc(I)cc1F)CC2`: the IC50 is 1.06 µM in test [1] and 128 µM in test [2].

Regarding `COc1cccc2c1C=[N+](c1ccc(C#N)cc1)CC2`, the IC50 in test [1] was > 10 µM.

As for `COc1cccc([N+]2=Cc3c(cccc3OC)CC2)c1`, the values for the IC50 in test [1] and in test [2] were 5.23 µM and 77.3 µM, respectively.

Regarding `COc1cccc2c1C=[N+](c1ccccc1C(F)(F)F)CC2`, the IC50 in test [1] was > 10 µM.

Turning to `COc1cccc2c1C=[N+](c1ccc(Cl)cc1)CC2`, the values for the IC50 in test [1] and in test [2] were 0.32 µM and 62.1 µM, respectively.

Regarding `COc1cccc2c1C=[N+](c1ccc(C(F)(F)F)cc1)CC2`, the IC50 in test [1] amounted to 1.94 µM; in test [2] it was 221 µM.

Regarding `COc1cccc2c1C=[N+](c1cccc(Br)c1)CC2`, the IC50 in test [1] was > 10 µM.

Consider `COc1cccc2c1C=[N+](c1cccc(C#N)c1)CC2`, for which the values for the IC50 in test [1] and in test [2] were 5.13 µM and 110 µM, respectively.

For `COc1cccc2c1C=[N+](c1ccc(Cl)cc1Cl)CC2`, the IC50 is 1.04 µM in test [1] and 90.5 µM in test [2].

As for `COc1ccc([N+]2=Cc3c(cccc3OC)CC2)cc1`, the IC50 in test [1] amounted to 1.04 µM; in test [3], 26.6 µM; in test [4] it was 27.3 µM; in test [2] it was 113 µM; in test [5], 23.8 µM.

Regarding `COc1cccc2c1C=[N+](c1ccccc1I)CC2`, the results for the IC50 in test [1] and in test [2] were 1.79 µM and 28.9 µM, respectively.

With `COc1cccc2c1C=[N+](c1ccc(I)cc1)CC2`, the IC50 worked out at 1.01 µM in test [1] and 58.1 µM in test [2].

In the case of `COc1cccc2c1C=[N+](c1ccccc1F)CC2`, the IC50 in test [1] is 2.94 µM; in test [2], 75 µM.

For the compound `COc1cccc2c1C=[N+](c1cccc(C(F)(F)F)c1)CC2`, the IC50 in test [1] is > 10 µM.

For `COc1cccc2c1C=[N+](c1cc(Cl)cc(Cl)c1)CC2`, the IC50 in test [1] is > 10 µM.

In the case of `COc1cccc2c1C=[N+](c1ccc(C)cc1)CC2`, the figures for the 50% inhibitory concentration (IC50) in test [1] and in test [2] were 0.53 µM and 47.1 µM, respectively.

For the compound `COc1cccc2c1C=[N+](c1ccccc1)CC2`, the values for the IC50 in test [1] and in test [2] were 1.62 µM and 35.4 µM, respectively.

As to `COc1cccc2c1C=[N+](c1ccccc1Cl)CC2`, the values for the IC50 in test [1] and in test [2] were > 10 µM and 190 µM, respectively.

Regarding `COc1cccc2c1C=[N+](c1cccc(C)c1)CC2`, the concentration for half-maximal inhibition (IC50) in test [1] came out at 2.89 µM; in test [2], 35.9 µM.

On to `COc1cccc2c1C=[N+](c1ccc(Br)cc1F)CC2`, for which the IC50 was found to be 1.29 µM in test [1] and 69.3 µM in test [2].

As to `COc1cccc2c1C=[N+](c1c(F)cccc1F)CC2`, the results for the IC50 in test [1] and in test [2] were 1.29 µM and 105 µM, respectively.

Take `COc1cccc2c1C=[N+](c1ccc(Br)cc1Br)CC2`: the IC50 in test [1] came out at 3.72 µM; in test [3] it was 4.26 µM; in test [4], 6.13 µM; in test [2], 116 µM; in test [5], 6.03 µM.

As for `COc1cccc2c1C=[N+](c1ccc(Br)cc1)CC2`, the IC50 in test [1] amounted to 0.28 µM; in test [3] it was 20.3 µM; in test [4], 20.6 µM; in test [2], 20.7 µM; in test [5], 19.2 µM.

With `COc1ccccc1[N+]1=Cc2c(cccc2OC)CC1`, in test [1], the 50% inhibitory concentration (IC50) is > 10 µM.

Take `C[n+]1cc2c3c(ccc2c2ccc4cc5c(cc4c21)OCO5)OCO3`: the IC50 was found to be 1.22 µM in test [1] and 7.08 µM in test [2].

Turning to `COc1cccc2cc[n+](-c3ccccc3F)cc12`, the results for the IC50 in test [1] and in test [2] were 2.55 µM and 80.9 µM, respectively.

On to `COc1cccc2cc[n+](-c3ccc(Br)cc3F)cc12`, for which the IC50 in test [1] worked out at 0.9 µM; in test [2] it was 196 µM.

Regarding `COc1cccc2cc[n+](-c3ccccc3I)cc12`, the IC50 in test [1] came to 2.06 µM; in test [2], 36.9 µM.

Regarding `Brc1ccc([N+]2=Cc3ccccc3CC2)cc1`, the IC50 stood at 10.5 µM in test [1] and 63.7 µM in test [2].

With `COc1cccc2cc[n+](-c3ccc(Cl)cc3)cc12`, the IC50 stood at 0.17 µM in test [1] and 104 µM in test [2].

As for `COc1cccc2cc[n+](-c3ccccc3C(F)(F)F)cc12`, the half-inhibitory concentration (IC50) in test [1] is > 10 µM.

On to `COc1cccc2cc[n+](-c3cccc(I)c3)cc12`, for which, in test [1], the IC50 was > 10 µM.

As for `COc1cccc2cc[n+](-c3cccc(C)c3)cc12`, the results for the IC50 in test [1] and in test [2] were 2.21 µM and 30.6 µM, respectively.

For `COc1cccc(-[n+]2ccc3cccc(OC)c3c2)c1`, the values for the IC50 in test [1] and in test [2] were 6.9 µM and 98.3 µM, respectively.

On to `COc1cccc2cc[n+](-c3cccc(C#N)c3)cc12`, for which the figures for the IC50 in test [1] and in test [2] were 3.41 µM and > 250 µM, respectively.

Take `COc1ccccc1-[n+]1ccc2cccc(OC)c2c1`: the 50% inhibitory concentration (IC50) in test [1] is > 10 µM.

For the compound `COc1cccc2cc[n+](-c3ccccc3C#N)cc12`, the IC50 in test [1] is 1.75 µM; in test [2] it was 59.4 µM.

For `COc1cccc2cc[n+](-c3ccc(Cl)cc3Cl)cc12`, the IC50 is 3.42 µM in test [1] and 232 µM in test [2].

Consider `COc1cccc2cc[n+](-c3ccccc3Cl)cc12`, for which the 50% inhibitory concentration (IC50) stood at 5.33 µM in test [1] and 67.2 µM in test [2].

`COc1cccc2cc[n+](-c3c(F)cccc3F)cc12`: the IC50 in test [1] stood at 2.7 µM; in test [2] it was 48.4 µM.

Regarding `COc1cccc2cc[n+](-c3cccc(Cl)c3)cc12`, the results for the IC50 in test [1] and in test [2] were 9.45 µM and 36.4 µM, respectively.

`COc1cccc2cc[n+](-c3ccc(Br)cc3)cc12`: the IC50 in test [1] is 0.19 µM; in test [3] it was 20.8 µM; in test [4], > 50 µM; in test [2], 21.6 µM; in test [5], 19.8 µM.

In the case of `COc1cccc2cc[n+](-c3ccccc3)cc12`, the IC50 in test [1] is 1.42 µM; in test [2] it was 80.3 µM.

Consider `COc1cccc2cc[n+](-c3ccc(Br)cc3Br)cc12`, for which the IC50 in test [1] was 0.57 µM; in test [3], > 50 µM; in test [4], > 50 µM; in test [2] it was 131 µM; in test [5] it was > 50 µM.

On to `COc1cccc2cc[n+](-c3ccc(I)cc3F)cc12`, for which the IC50 in test [1] is 1.23 µM; in test [2], 89.8 µM.

For the compound `COc1cccc2cc[n+](-c3cccc(Br)c3)cc12`, in test [1], the IC50 is > 10 µM.

With `COc1cccc2cc[n+](-c3ccc(I)cc3)cc12`, the IC50 in test [1] came out at 0.72 µM; in test [2], 36.1 µM.

For the compound `COc1cccc2cc[n+](-c3cccc(F)c3)cc12`, the 50% inhibitory concentration (IC50) was 9.13 µM in test [1] and > 250 µM in test [2].

Turning to `COc1cccc2cc[n+](-c3ccc(C#N)cc3)cc12`, in test [1], the IC50 is > 10 µM.

Turning to `COc1cccc2cc[n+](-c3ccccc3Br)cc12`, the IC50 in test [1] amounted to 5.23 µM; in test [2], 89.5 µM.

Consider `Brc1ccc(-[n+]2ccc3ccccc3c2)cc1`, for which the IC50 came to 2.39 µM in test [1] and 130 µM in test [2].

For `COc1cccc2cc[n+](-c3ccc(F)cc3)cc12`, the IC50 in test [1] turned out to be 0.67 µM; in test [2], 143 µM.

Take `COc1cccc2cc[n+](-c3cccc(C(F)(F)F)c3)cc12`: the IC50 in test [1] is > 10 µM.

As for `COc1ccc(-[n+]2ccc3cccc(OC)c3c2)cc1`, the IC50 is 0.14 µM in test [1]; > 50 µM in test [3]; > 50 µM in test [4]; 3.84 µM in test [2]; > 50 µM in test [5].

As for `COc1cccc2cc[n+](-c3cc(Cl)cc(Cl)c3)cc12`, the IC50 in test [1] was > 10 µM.

Turning to `COc1cccc2cc[n+](-c3ccccc3C)cc12`, the half-inhibitory concentration (IC50) in test [1] was determined as 2.89 µM; in test [2] it was 243 µM.

In the case of `COc1cccc2cc[n+](-c3ccc(C(F)(F)F)cc3)cc12`, the results for the half-inhibitory concentration (IC50) in test [1] and in test [2] were 0.69 µM and 33.5 µM, respectively.

Take `COc1cccc2cc[n+](-c3ccc(C)cc3)cc12`: the IC50 in test [1] is 1.08 µM; in test [2], > 250 µM.

On to `COc1ccc2c(c[n+](C)c3c4cc5c(cc4ccc23)OCO5)c1OC` [CHELERYTHRINE], for which the IC50 in test [1] is 1.45 µM; in test [2], 8.58 µM.

The record behind these values is ChEMBL document CHEMBL4765338, “Simple analogues of natural product chelerythrine: Discovery of a novel anticholinesterase 2-phenylisoquinolin-2-ium scaffold with excellent potency against acetylcholinesterase” (Eur J Med Chem, 2020).
